According to patent publication US11040954B1, “CXCR3 receptor agonists” (RECEPTOS LLC, priority 2016, dated 2021):

Molecular target: T1, CXCR3 (Homo sapiens, UniProt P49682)
T1 construct: host or cells: CHO-K1 (cAMP Hunter CHOK1 CXCR3 Gi cell line)
T1 sequence (P49682 1-368): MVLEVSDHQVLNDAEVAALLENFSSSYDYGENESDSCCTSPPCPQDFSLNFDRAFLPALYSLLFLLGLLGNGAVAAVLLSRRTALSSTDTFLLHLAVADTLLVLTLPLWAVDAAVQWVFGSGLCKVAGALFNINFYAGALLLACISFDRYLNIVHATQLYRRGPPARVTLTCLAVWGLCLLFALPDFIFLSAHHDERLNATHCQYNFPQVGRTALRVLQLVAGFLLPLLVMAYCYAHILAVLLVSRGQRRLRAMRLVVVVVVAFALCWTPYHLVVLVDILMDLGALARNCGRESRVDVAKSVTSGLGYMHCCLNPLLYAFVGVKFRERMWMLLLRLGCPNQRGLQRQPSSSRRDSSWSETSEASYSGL
Assay: CXCR3 cAMP agonist assay (cAMP Hunter CHOK1 CXCR3 Gi cell line, forskolin-stimulated, HitHunter cAMP detection)
Type: cell-based
Details: cAMP Hunter CHOK1 CXCR3 Gi cells, 20 μM forskolin, 30 minutes; read-out: Activity (CXCR3 cAMP agonist assay compound EC50)
Description: The cAMP Hunter™ CHOK1 CXCR3 Gi cell line was purchased from DiscoveRx. Cells were seeded into a 96-well white assay plate at 50,000 cells/well/94 μl assay buffer (Hank's Buffered Saline Solution, 10 mM HEPES, 0.1% fatty acid-free BSA, pH 7.4) and immediately assayed in suspension. Forskolin was added to 20 μM (5 μl of 400 μM stock) simultaneously with a 12-point dose response curve of compound at 0-10 μM (1 μl of 100× stock in 100% DMSO), and cells were incubated for 30 minutes. A cAMP standard curve is run as an assay control. A CXCL11 dose response was included to determine maximum efficacy. Direct detection of cAMP was carried out using the DiscoveRx HitHunter cAMP kit according to manufacturer's instructions, and luminescence was read using a SpectraMax M5 plate reader.

Row | SMILES | EC50
1 | COc1ccccc1NC(=O)[C@H](CCN)NC(=O)[C@@H]1Cc2ccccc2CN1C(=O)CCC(=O)c1ccccc1 [Compound 1-35] | 250 to 500 nM
2 | COc1cc(C)c(Cl)cc1NC(=O)[C@H](CCN)NC(=O)[C@@H]1Cc2ccccc2CN1C(=O)CCC(=O)c1ccccc1 [Compound 1-36] | < 50 nM
3 | COc1cc(C)ccc1NC(=O)[C@H](CCN)NC(=O)[C@@H]1Cc2ccccc2CN1C(=O)CCC(=O)c1ccccc1 [Compound 1-37] | 50 to 250 nM
4 | COc1ccc(C)cc1NC(=O)[C@H](CCN)NC(=O)[C@@H]1Cc2ccccc2CN1C(=O)CCC(=O)c1ccccc1 [Compound 1-38] | < 50 nM
5 | NCC[C@H](NC(=O)[C@@H]1Cc2ccccc2CN1C(=O)CCC(=O)c1ccccc1)C(=O)Nc1cccc(C(F)(F)F)c1 [Compound 2-6] | 50 to 250 nM
6 | NCC[C@H](NC(=O)[C@@H]1Cc2ccccc2CN1C(=O)CCC(=O)c1ccccc1)C(=O)Nc1ccc(Cl)cc1F [Compound 2-9] | 50 to 250 nM
7 | NCC[C@H](NC(=O)[C@@H]1Cc2ccccc2CN1C(=O)CCC(=O)c1ccccc1)C(=O)Nc1cc(Cl)cc(Cl)c1 [Compound 2-17] | 50 to 250 nM
8 | NCC[C@H](NC(=O)[C@@H]1Cc2ccccc2CN1C(=O)CCC(=O)c1ccccc1)C(=O)Nc1cc(Cl)c(Cl)cc1F [Compound 2-20] | 50 to 250 nM
9 | COc1cc(Cl)c(C)cc1NC(=O)[C@H](CCN)NC(=O)[C@@H]1Cc2ccccc2CN1C(=O)CCC(=O)c1ccccc1 [Compound 2-25] | < 50 nM
10 | NCC[C@H](NC(=O)[C@@H]1Cc2ccccc2CN1C(=O)CCC(=O)c1ccccc1)C(=O)Nc1ccc2ccccc2c1 [Compound 2-28] | < 50 nM
11 | NCC[C@H](NC(=O)[C@@H]1Cc2ccccc2CN1C(=O)CCC(=O)c1ccccc1)C(=O)Nc1cccc(-c2ccccc2)c1 [Compound 2-29] | 250 to 500 nM
12 | CCc1cc(Cl)c(Cl)cc1NC(=O)[C@H](CCN)NC(=O)[C@@H]1Cc2ccccc2CN1C(=O)CCC(=O)c1ccccc1 [Compound 2-30] | 50 to 250 nM
13 | Cc1ccc(NC(=O)[C@H](CCN)NC(=O)[C@@H]2Cc3ccccc3CN2C(=O)CCC(=O)c2ccccc2)c(F)c1 [Compound 2-31] | 50 to 250 nM
14 | Cc1cccc(NC(=O)[C@H](CCN)NC(=O)[C@@H]2Cc3ccccc3CN2C(=O)CCC(=O)c2ccccc2)c1F [Compound 2-32] | < 50 nM
15 | Cc1ccc(F)c(NC(=O)[C@H](CCN)NC(=O)[C@@H]2Cc3ccccc3CN2C(=O)CCC(=O)c2ccccc2)c1 [Compound 2-33] | < 50 nM
16 | NCC[C@H](NC(=O)[C@@H]1Cc2ccccc2CN1C(=O)CCC(=O)c1ccccc1)C(=O)Nc1cccc(Cl)c1F [Compound 2-34] | < 50 nM
17 | Cc1ccc(Cl)c(NC(=O)[C@H](CCN)NC(=O)[C@@H]2Cc3ccccc3CN2C(=O)CCC(=O)c2ccccc2)c1 [Compound 2-35] | 50 to 250 nM

Row | SMILES | EC50
18 | Cc1ccc(NC(=O)[C@H](CCN)NC(=O)[C@@H]2Cc3ccccc3CN2C(=O)CCC(=O)c2ccccc2)c(Cl)c1 [Compound 2-36] | 250 to 500 nM
19 | NCC[C@H](NC(=O)[C@@H]1Cc2ccccc2CN1C(=O)CCC(=O)c1ccccc1)C(=O)Nc1cc(Cl)ccc1F [Compound 2-37] | 50 to 250 nM
20 | Cc1cc(NC(=O)[C@H](CCN)NC(=O)[C@@H]2Cc3ccccc3CN2C(=O)CCC(=O)c2ccccc2)c(I)cc1Cl [Compound 2-38] | < 50 nM
21 | Cc1cc(NC(=O)[C@H](CCN)NC(=O)[C@@H]2Cc3ccccc3CN2C(=O)CCC(=O)c2ccccc2)cc(C)c1Cl [Compound 2-39] | < 50 nM
22 | Cc1cc(NC(=O)[C@H](CCN)NC(=O)[C@@H]2Cc3ccccc3CN2C(=O)CCC(=O)c2ccccc2)cc(Br)c1Cl [Compound 2-40] | < 50 nM
23 | CCc1cc(Cl)c(C)cc1NC(=O)[C@H](CCN)NC(=O)[C@@H]1Cc2ccccc2CN1C(=O)CCC(=O)c1ccccc1 [Compound 2-41] | 50 to 250 nM
24 | NCC[C@H](NC(=O)[C@@H]1Cc2ccccc2CN1C(=O)CCC(=O)c1ccccc1)C(=O)Nc1cnc2ccccc2c1 [Compound 2-44] | < 50 nM
25 | CCc1c(NC(=O)[C@H](CCN)NC(=O)[C@@H]2Cc3ccccc3CN2C(=O)CCC(=O)c2ccccc2)ccc(Cl)c1Cl [Compound 2-48] | 50 to 250 nM
26 | Cc1cccc(NC(=O)[C@H](CCN)NC(=O)[C@@H]2Cc3ccccc3CN2C(=O)CCC(=O)c2ccccc2)c1O [Compound 2-50] | 250 to 500 nM
27 | COc1c(C)cccc1NC(=O)[C@H](CCN)NC(=O)[C@@H]1Cc2ccccc2CN1C(=O)CCC(=O)c1ccccc1 [Compound 2-51] | 50 to 250 nM
28 | NCC[C@H](NC(=O)[C@@H]1Cc2ccccc2CN1C(=O)CCC(=O)c1ccccc1)C(=O)Nc1ccc(Cl)cc1Cl [Compound 2-52] | 50 to 250 nM
29 | CCc1c(C)cccc1NC(=O)[C@H](CCN)NC(=O)[C@@H]1Cc2ccccc2CN1C(=O)CCC(=O)c1ccccc1 [Compound 2-53] | 50 to 250 nM
30 | CCc1c(NC(=O)[C@H](CCN)NC(=O)[C@@H]2Cc3ccccc3CN2C(=O)CCC(=O)c2ccccc2)ccc(Cl)c1C [Compound 2-54] | > 500 nM
31 | CCc1ccc(NC(=O)[C@H](CCN)NC(=O)[C@@H]2Cc3ccccc3CN2C(=O)CCC(=O)c2ccccc2)c(F)c1 [Compound 2-56] | 250 to 500 nM
32 | COc1cc(F)c(C)cc1NC(=O)[C@H](CCN)NC(=O)[C@@H]1Cc2ccccc2CN1C(=O)CCC(=O)c1ccccc1 [Compound 2-60] | 50 to 250 nM
33 | COc1c(NC(=O)[C@H](CCN)NC(=O)[C@@H]2Cc3ccccc3CN2C(=O)CCC(=O)c2ccccc2)ccc(C)c1C [Compound 2-61] | > 500 nM
34 | NCC[C@H](NC(=O)[C@@H]1Cc2ccccc2CN1C(=O)CCC(=O)c1ccccc1)C(=O)NC1Cc2ccccc2C1 [Compound 2-66] | < 50 nM

Results, then the compound that gave them:

Row | EC50 | SMILES
35 | < 50 nM | COc1cc2c(cc1NC(=O)[C@H](CCN)NC(=O)[C@@H]1Cc3ccccc3CN1C(=O)CCC(=O)c1ccccc1)CCC2 [Compound 1-39]
36 | 50 to 250 nM | NCC[C@H](NC(=O)[C@@H]1Cc2ccccc2CN1C(=O)CCC(=O)c1ccccc1)C(=O)Nc1ccc(Cl)c(C(F)(F)F)c1 [Compound 2-4]
37 | > 500 nM | NCC[C@H](NC(=O)[C@@H]1Cc2ccccc2CN1C(=O)CCC(=O)c1ccccc1)C(=O)Nc1ccc(F)c(F)c1 [Compound 2-8]
38 | 250 to 500 nM | Cc1cc(Cl)ccc1NC(=O)[C@H](CCN)NC(=O)[C@@H]1Cc2ccccc2CN1C(=O)CCC(=O)c1ccccc1 [Compound 2-10]
39 | 250 to 500 nM | NCC[C@H](NC(=O)[C@@H]1Cc2ccccc2CN1C(=O)CCC(=O)c1ccccc1)C(=O)Nc1ccc(C(F)(F)F)c(F)c1 [Compound 2-11]
40 | 250 to 500 nM | NCC[C@H](NC(=O)[C@@H]1Cc2ccccc2CN1C(=O)CCC(=O)c1ccccc1)C(=O)Nc1ccc(Cl)c(F)c1 [Compound 2-12]
41 | > 500 nM | NCC[C@H](NC(=O)[C@@H]1Cc2ccccc2CN1C(=O)CCC(=O)c1ccccc1)C(=O)Nc1ccc(C(F)(F)F)c(Cl)c1 [Compound 2-13]
42 | < 50 nM | NCC[C@H](NC(=O)[C@@H]1Cc2ccccc2CN1C(=O)CCC(=O)c1ccccc1)C(=O)Nc1ccc(F)c(C(F)(F)F)c1 [Compound 2-14]
43 | < 50 nM | Cc1ccc(NC(=O)[C@H](CCN)NC(=O)[C@@H]2Cc3ccccc3CN2C(=O)CCC(=O)c2ccccc2)cc1Cl [Compound 2-16]
44 | 50 to 250 nM | Cc1cc(NC(=O)[C@H](CCN)NC(=O)[C@@H]2Cc3ccccc3CN2C(=O)CCC(=O)c2ccccc2)ccc1C(F)(F)F [Compound 2-27]
45 | > 500 nM | NCC[C@H](NC(=O)[C@@H]1Cc2ccccc2CN1C(=O)CCC(=O)c1ccccc1)C(=O)Nc1ccc2ccncc2c1 [Compound 2-42]
46 | 50 to 250 nM | NCC[C@H](NC(=O)[C@@H]1Cc2ccccc2CN1C(=O)CCC(=O)c1ccccc1)C(=O)Nc1ccc2ncccc2c1 [Compound 2-43]
47 | 250 to 500 nM | NCC[C@H](NC(=O)[C@@H]1Cc2ccccc2CN1C(=O)CCC(=O)c1ccccc1)C(=O)Nc1ccc2cccnc2c1 [Compound 2-45]
48 | < 50 nM | NCC[C@H](NC(=O)[C@@H]1Cc2ccccc2CN1C(=O)CCC(=O)c1ccccc1)C(=O)Nc1ccc2c(c1)CCCC2 [Compound 2-46]
49 | 50 to 250 nM | COc1c(NC(=O)[C@H](CCN)NC(=O)[C@@H]2Cc3ccccc3CN2C(=O)CCC(=O)c2ccccc2)ccc2c1CCC2 [Compound 2-58]
50 | 250 to 500 nM | COc1cc2c(cc1NC(=O)[C@H](CCN)NC(=O)[C@@H]1Cc3ccccc3CN1C(=O)CCC(=O)c1ccccc1)CCCC2 [Compound 2-59]
51 | 50 to 250 nM | COc1c(NC(=O)[C@H](CCN)NC(=O)[C@@H]2Cc3ccccc3CN2C(=O)CCC(=O)c2ccccc2)ccc2c1CCCC2 [Compound 2-62]
52 | 50 to 250 nM | NCC[C@H](NC(=O)[C@@H]1Cc2ccccc2CN1C(=O)CCC(=O)c1ccccc1)C(=O)Nc1ccc2c(c1)OCO2 [Compound 2-63]
53 | 250 to 500 nM | Cc1nc2ccc(NC(=O)[C@H](CCN)NC(=O)[C@@H]3Cc4ccccc4CN3C(=O)CCC(=O)c3ccccc3)cc2s1 [Compound 2-64]
54 | 50 to 250 nM | NCC[C@H](NC(=O)[C@@H]1Cc2ccccc2CN1C(=O)CCC(=O)c1ccccc1)C(=O)Nc1ccc2ncsc2c1 [Compound 2-65]
55 | < 50 nM | NCC[C@H](NC(=O)[C@@H]1Cc2ccccc2CN1C(=O)CCC(=O)c1ccccc1)C(=O)Nc1cccc2c1CCC2 [Compound 2-67]
